From patent US20240316020A1, “Novel Pyridine Compounds” (ICAGEN, LLC, priority 2021, published 2024)

What was measured:
human Kv7.2 = human Kv7.2 (Homo sapiens (Human), UniProt O43526); experiment: SyncroPatch 384 electrophysiology, CHO cells stably expressing human Kv7.2; type: cell-based
Protocol: (§1) The potency of Kv7 potentiators was determined using the SyncroPatch 384 (Nanion) high throughput electrophysiology platform.
(§2) CHO cells stably expressing either human Kv7.2, Kv7.4 or Kv7.5/7.3 under a constitutive CMV promoter were used for these studies. Cells were maintained in F12 Hams+1 mM L-glutamine (Hyclone) supplemented with 10% FBS (Sigma), 0.3×NEAA (Non-essential Gamino-acids) and 400 ug/ml G418 at 37° C. in 5% CO2. Cells were cultured in T-225 flasks (Nunc) for 2-3 days to reach 85-95% confluence prior to electrophysiological recording.
(§3) Earle's balanced salt solution (in mM): 135 NaCl, 5.4 KCl, 5 Glucose, 2 CaCl2, 1 MgCl2, 5 HEPES, pH 7.4. Seal enhancer solution (in mM): 90 NaCl, 3 KCl, 35 CaCl2, 10 MgCl2, 10 HEPES, pH 7.4. Extracellular recording solution (in mM): 71 NaCl, 70 NMDG, 13 KCl, 5 Glucose, 2 CaCl2, 1 MgCl2, 10 HEPES, pH 7.4. Intracellular recording solution (in mM): 130 KF, 20 KCl, 4 EGTA, 10 HEPES, 2 EDTA, 0.01 Escin, pH 7.2.
(§4) Cells were harvested for electrophysiological recording upon reaching appropriate confluence. Cells were first washed in DPBS (Hyclone, Cat #SH30028.03) and then 2 ml of Accutase (MP Biomedicals #1000449) was added at 28° C. until ˜90% of cells were suspended. F12 HAM's media+1 mM L-glutamine (Hyclone, SH30026.02) was then added to the flask to dilute the accutase. Cells were then triturated until a single cell suspension was achieved, a cell count was performed, and cells were centrifuged for 2 min. at 1,000 rpm. Media was then aspirated, and cells were resuspended in Earle's balanced salt solution to a concentration of 0.75×10^6 cells/ml and allowed to recover for 25 min at 10° C.
(§5) At the beginning of each assay, 20 μl of cell suspension was dispensed into each well of a multi-hole 384-well SyncroPatch chip by the onboard pipettor. Cell sealing was initiated, and seal enhancer solution was added to facilitate seal formation. Upon completion of sealing, cells were washed 3 times with extracellular recording solution and the assay voltage protocol was started. Human Kv7.2, Kv7.4 or Kv7.5/7.3 channels were evaluated using a voltage protocol in which cells were voltage-clamped at a holding potential of −60 mV. Potassium currents were continuously activated with a series of three voltage steps to −30 mV for 3 seconds, 40 mV for 1 second and −90 mV for 4 seconds with 12 seconds between successive voltage sweeps. Potassium currents were measured from the −90 mV repolarizing step. Baseline current was assessed for 3.5 minutes prior to the addition of 5.6 μM zinc pyrithione (1 μM for Kv7.4). Kv7.2, Kv7.4 or Kv7.5/7.3 current in the presence of zinc pyrithione was acquired over five minutes to allow channels to reach steady state activity prior to addition of test agents. Channel activity was monitored for three minutes preceding the addition of 30 μM ML-213 (3 minutes) to achieve maximum activation.
(§6) Data were collected on the SyncroPatch platform using PatchControl software (Nanion) and processed and analyzed using DataControl Software (Nanion). Percent activation was calculated from potassium current as follows: The average current for the 5 sweeps in the presence of zinc pyrithione immediately preceding test agent addition was taken as the ‘control’ data. Likewise, the average potassium current in the presence of test agents 5 sweeps immediately preceding addition of 30 μM ML-213 was determined for ‘drug’ data. The average potassium current 5 sweeps immediately prior to addition of 150 mM TEA+10 μM XE-991 was determined for ‘max activation’ data while average currents from 5 sweeps immediately following addition of TEA was determined for ‘max inhibition’ data. Percent activation for each of the 384-wells of a sealchip was calculated as ((‘drug’−‘max inhibition’)/(‘max activation’−‘max inhibition’))*100 with Pipeline Pilot (Accelrys). […]

human Kv7.5/7.3 = human Kv7.5/7.3 (Homo sapiens (Human), UniProt O43525+Q9NR82); experiment: SyncroPatch 384 electrophysiology, CHO cells stably expressing human Kv7.5/7.3; type: cell-based; conditions: Table A; for Kv7.5/7.3/Kv7.2 selectivity ratio: Kv7.5/7.3 EC50 over Kv7.2 EC50
Protocol: as §1, §2, §3, §4, §5, §6

[1] = Human liver microsomal clearance; type: in vitro ADME; conditions: both sexes, liver microsomes, Table B, 0.5 μM compound, 0.25 mg/mL microsomes, NADPH, 37° C., read-out: Human liver microsomal intrinsic clearance CLint
Protocol: Pooled mixed gender human liver microsomes were purchased from BioIVT at a concentration of 20 mg protein/mL and stored at −80° C. Incubations were conducted in V-bottomed 350 μL polypropylene 96-well plates. Compounds were diluted in phosphate buffer (final concentrations 0.5 μM compound, 0.5% DMSO) and mixed with diluted liver microsomes (fc 0.25 mg/mL). This mixture was aliquoted onto the assay plate (six wells per compound) and pre-warmed at 37° C. for ten minutes. Addition of NADPH (fc 0.5 mM, final incubation volume 100 μL) to each well started the time course. Reactions were stopped at 0.5, 3, 5, 10, 20 & 30 minutes by addition of 150 μL acetonitrile containing internal standard (IS; 0.125 μg/mL daidzein) and stopped samples were removed to a clean polypropylene plate. At the end of the assay the plate was refrigerated for an hour and then centrifuged at 3000 rpm for 10 minutes at 4° C. A sample of the supernatant was removed to a fresh plate and diluted 10-fold with 50:50 acetonitrile:water, then heat sealed. Analysis was by liquid chromatography coupled with tandem mass spectrometry (LC-MS/MS) for analyte and IS levels. Ratios of the analyte and IS peak areas were generated for results calculation (IS ratio). Dextromethorphan and verapamil were included in each experiment as controls for high clearance compounds. IS ratio data were converted into natural log values which were plotted against time and a linear regression fit applied. The slope of the line was returned and converted into the elimination constant (kel) by multiplying by −1. The elimination constant was used to calculate the in vitro CLint: in vitro CLint (μL/min/mg protein) is kel* (1000/protein conc in mg/mL).

human Kv7.4 = human Kv7.4 (Homo sapiens (Human), UniProt P56696); experiment: SyncroPatch 384 electrophysiology, CHO cells stably expressing human Kv7.4; type: cell-based; conditions: Table C; for Kv7.4/Kv7.2 selectivity ratio: Kv7.4 EC50 over Kv7.2 EC50
Protocol: as §1, §2, §3
Cells were harvested for electrophysiological recording upon reaching appropriate confluence. Cells were first washed in DPBS (Hyclone, Cat #SH30028.03) and then 2 ml of Accutase (MP Biomedicals #1000449) was added at 28° C. until ˜90% of cells were suspended. F12 HAM's media+1 mM L-glutamine (Hyclone, SH30026.02) was then added to the flask to dilute the accutase. […]
At the beginning of each assay, 20 μl of cell suspension was dispensed into each well of a multi-hole 384-well SyncroPatch chip by the onboard pipettor. […] Human Kv7.2, Kv7.4 or Kv7.5/7.3 channels were evaluated using a voltage protocol in which cells were voltage-clamped at a holding potential of −60 mV. […] Potassium currents were measured from the −90 mV repolarizing step. Baseline current was assessed for 3.5 minutes prior to the addition of 5.6 μM zinc pyrithione (1 μM for Kv7.4). […] Channel activity was monitored for three minutes preceding the addition of 30 μM ML-213 (3 minutes) to achieve maximum activation.
as §6, with “data.” for “data. Percent activation for each of the 384-wells of a sealchip was calculated as ((‘drug’−‘max inhibition’)/(‘max activation’−‘max inhibition’))*100 with Pipeline Pilot (Accelrys).”

[2] = Table 1, CHO cells, potassium current at -90 mV step, in presence of zinc pyrithione

Sequence of human Kv7.2 (O43526 whole entry): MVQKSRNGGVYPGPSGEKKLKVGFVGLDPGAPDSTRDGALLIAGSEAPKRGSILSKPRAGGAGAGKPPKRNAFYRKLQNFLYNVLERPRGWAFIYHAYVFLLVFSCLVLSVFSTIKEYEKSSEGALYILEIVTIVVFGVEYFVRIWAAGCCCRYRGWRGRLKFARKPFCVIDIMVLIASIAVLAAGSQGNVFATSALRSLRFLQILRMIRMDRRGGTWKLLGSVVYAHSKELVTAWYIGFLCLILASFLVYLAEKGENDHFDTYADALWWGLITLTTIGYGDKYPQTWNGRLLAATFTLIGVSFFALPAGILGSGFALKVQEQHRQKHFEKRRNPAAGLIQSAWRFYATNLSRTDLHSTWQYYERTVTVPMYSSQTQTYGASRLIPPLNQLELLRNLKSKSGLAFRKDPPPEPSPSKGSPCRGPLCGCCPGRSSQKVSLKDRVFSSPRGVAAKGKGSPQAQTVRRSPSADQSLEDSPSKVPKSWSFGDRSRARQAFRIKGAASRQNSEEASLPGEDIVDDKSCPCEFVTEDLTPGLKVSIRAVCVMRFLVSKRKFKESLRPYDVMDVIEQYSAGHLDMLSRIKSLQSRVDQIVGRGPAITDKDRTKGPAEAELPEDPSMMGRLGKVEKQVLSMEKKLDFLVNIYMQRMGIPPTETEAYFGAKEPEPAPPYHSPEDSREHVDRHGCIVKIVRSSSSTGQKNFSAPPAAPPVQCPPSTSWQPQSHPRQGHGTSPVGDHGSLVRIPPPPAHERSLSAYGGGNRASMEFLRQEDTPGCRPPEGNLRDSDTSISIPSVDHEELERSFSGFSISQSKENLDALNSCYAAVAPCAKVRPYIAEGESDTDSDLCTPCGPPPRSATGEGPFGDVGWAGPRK
Sequence of human Kv7.5/7.3 (Q9NR82 whole entry): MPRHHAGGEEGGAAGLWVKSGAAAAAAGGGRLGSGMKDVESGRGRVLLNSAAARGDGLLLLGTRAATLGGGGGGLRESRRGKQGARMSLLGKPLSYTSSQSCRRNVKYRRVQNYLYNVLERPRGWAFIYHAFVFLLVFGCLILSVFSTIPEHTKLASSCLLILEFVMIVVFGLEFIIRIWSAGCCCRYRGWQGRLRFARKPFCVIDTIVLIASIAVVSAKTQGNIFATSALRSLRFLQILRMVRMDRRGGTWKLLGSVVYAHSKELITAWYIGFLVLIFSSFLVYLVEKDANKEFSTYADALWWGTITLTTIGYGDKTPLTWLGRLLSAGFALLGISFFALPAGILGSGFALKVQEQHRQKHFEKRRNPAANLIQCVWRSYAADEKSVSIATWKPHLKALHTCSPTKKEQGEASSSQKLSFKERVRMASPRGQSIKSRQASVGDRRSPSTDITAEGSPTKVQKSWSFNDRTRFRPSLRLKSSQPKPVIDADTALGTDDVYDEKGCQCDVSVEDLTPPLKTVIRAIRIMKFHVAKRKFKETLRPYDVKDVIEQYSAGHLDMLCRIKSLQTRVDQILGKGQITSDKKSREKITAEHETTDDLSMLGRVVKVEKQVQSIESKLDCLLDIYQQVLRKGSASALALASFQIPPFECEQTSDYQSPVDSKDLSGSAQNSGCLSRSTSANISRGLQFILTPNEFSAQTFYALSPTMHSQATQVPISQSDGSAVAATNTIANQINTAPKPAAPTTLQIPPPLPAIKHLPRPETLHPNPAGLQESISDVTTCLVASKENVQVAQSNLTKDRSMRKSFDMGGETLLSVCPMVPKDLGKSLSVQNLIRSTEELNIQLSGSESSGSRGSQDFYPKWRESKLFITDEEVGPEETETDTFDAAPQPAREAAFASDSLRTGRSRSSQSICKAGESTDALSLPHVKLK
Sequence of human Kv7.5/7.3 (O43525 whole entry): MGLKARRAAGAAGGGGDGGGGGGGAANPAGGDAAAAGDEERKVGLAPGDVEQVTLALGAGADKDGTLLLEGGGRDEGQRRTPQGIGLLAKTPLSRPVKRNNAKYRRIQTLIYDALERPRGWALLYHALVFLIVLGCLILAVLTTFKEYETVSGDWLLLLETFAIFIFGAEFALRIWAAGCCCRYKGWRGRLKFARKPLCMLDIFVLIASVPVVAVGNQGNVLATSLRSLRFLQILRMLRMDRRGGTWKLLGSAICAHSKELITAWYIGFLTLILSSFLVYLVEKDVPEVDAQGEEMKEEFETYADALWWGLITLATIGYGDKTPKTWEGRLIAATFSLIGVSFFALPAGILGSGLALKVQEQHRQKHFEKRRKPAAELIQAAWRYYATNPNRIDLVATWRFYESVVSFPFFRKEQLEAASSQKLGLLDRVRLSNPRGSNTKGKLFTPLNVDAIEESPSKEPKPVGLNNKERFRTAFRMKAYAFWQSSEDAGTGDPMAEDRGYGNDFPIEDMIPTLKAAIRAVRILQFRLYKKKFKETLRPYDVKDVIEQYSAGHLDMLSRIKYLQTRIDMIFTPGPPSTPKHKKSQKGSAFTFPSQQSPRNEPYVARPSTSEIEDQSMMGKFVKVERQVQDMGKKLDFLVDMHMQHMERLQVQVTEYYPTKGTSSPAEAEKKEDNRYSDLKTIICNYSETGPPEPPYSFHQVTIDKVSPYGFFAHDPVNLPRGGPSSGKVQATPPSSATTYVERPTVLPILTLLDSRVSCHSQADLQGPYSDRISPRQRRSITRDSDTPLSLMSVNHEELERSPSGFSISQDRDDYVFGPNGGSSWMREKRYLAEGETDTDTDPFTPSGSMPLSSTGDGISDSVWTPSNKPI
Sequence of human Kv7.4 (P56696 whole entry): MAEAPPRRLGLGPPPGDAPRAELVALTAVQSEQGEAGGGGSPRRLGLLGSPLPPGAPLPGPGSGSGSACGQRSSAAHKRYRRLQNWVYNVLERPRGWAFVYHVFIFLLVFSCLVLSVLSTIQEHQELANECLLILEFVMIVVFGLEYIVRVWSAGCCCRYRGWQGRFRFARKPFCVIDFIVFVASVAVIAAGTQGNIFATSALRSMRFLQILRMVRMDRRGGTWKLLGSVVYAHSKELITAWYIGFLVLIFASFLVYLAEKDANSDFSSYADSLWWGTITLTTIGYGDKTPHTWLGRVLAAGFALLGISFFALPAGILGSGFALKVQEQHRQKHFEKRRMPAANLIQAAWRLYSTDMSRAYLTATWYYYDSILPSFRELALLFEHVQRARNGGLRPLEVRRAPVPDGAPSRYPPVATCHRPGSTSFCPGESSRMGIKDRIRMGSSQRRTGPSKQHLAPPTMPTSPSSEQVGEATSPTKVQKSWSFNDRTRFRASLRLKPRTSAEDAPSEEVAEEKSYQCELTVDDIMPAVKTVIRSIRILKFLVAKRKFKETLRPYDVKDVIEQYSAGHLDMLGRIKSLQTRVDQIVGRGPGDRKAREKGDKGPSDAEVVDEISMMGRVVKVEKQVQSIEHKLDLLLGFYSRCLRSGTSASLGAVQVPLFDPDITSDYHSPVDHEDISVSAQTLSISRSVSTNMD

Row | SMILES | EC50 (human Kv7.2; [2]) | EC50 (human Kv7.5/7.3) | Kv7.5/7.3/Kv7.2 selectivity ratio (human Kv7.5/7.3) | microsomal CLint at 0.5 μM [1] | EC50 (human Kv7.2; Table A) | EC50 (human Kv7.2; Table C) | EC50 (human Kv7.4) | Kv7.4/Kv7.2 selectivity ratio (human Kv7.4)
1 | O=C(NCc1ccnc(OC(F)F)c1)N[C@H]1CC2(CCC2)[C@@H]1O (racemic) [Example 25, 1-[[2-(difluoromethoxy)pyridin-4-yl]methyl]-3-[rac-(2R,3R)-3-hydroxyspiro[3.3]heptan-2-yl]urea] | 740 nM | > 30000 nM | >41 | 14.2 µL/min/mg |  |  |  | 
2 | O=C(NCc1ccnc(OC(F)F)c1)NC1CCOC2(CCC2)C1 (stereo not shown) [Example 17, 1-[[2-(difluoromethoxy)pyridin-4-yl]methyl]-3-(5-oxaspiro[3.5]nonan-8-yl)urea] | 340 nM | > 30000 nM | >87 | 3.8 µL/min/mg |  |  |  | 
3 | O=C(NCc1ccnc(OC(F)F)c1)N[C@@H]1CCOC2(CCC2)C1 [Example 27, 1-[[2-(difluoromethoxy)pyridin-4-yl]methyl]-3-[(8R)-5-oxaspiro[3.5]nonan-8-yl]urea] | 260 nM | > 30000 nM | >115 | 20.5 µL/min/mg | 260 nM | 260 nM | > 30000 nM | >115
4 | O=C(NCc1ccnc(OC(F)F)c1)NC1CCOC2(CCCC2)C1 (stereo not shown) [Example 14, 1-[[2-(difluoromethoxy)pyridin-4-yl]methyl]-3-(6-oxaspiro[4.5]decan-9-yl)urea] | 260 nM | > 30000 nM | >116 | 20 µL/min/mg | 260 nM |  |  | 
5 | O=C(NCc1ccnc(OC(F)F)c1)NC1CCOC2(CCCC2(F)F)C1 (stereo not shown) [Example 21, 1-[[2-(difluoromethoxy)pyridin-4-yl]methyl]-3-(4,4-difluoro-6-oxaspiro[4.5]decan-9-yl)urea] | 210 nM | > 30000 nM | >146 | 20.4 µL/min/mg | 210 nM | 210 nM | > 30000 nM | >143
6 | O=C(NCc1ccnc(OC(F)F)c1)N[C@H]1CC2(CCC2)[C@H]1O (racemic) [Example 26, 1-[[2-(difluoromethoxy)pyridin-4-yl]methyl]-3-[rac-(2R,3S)-3-hydroxyspiro[3.3]heptant-2-yl]urea] | 440 nM |  |  | 11.5 µL/min/mg |  |  |  | 
7 | O=C(NCc1ccnc(OC(F)F)c1)NC1C(F)(F)C12CCC2 (stereo not shown) [Example 24, 1-[[2-(difluoromethoxy)pyridin-4-yl]methyl]-3-(2,2-difluorospiro[2.3]hexan-1-yl)urea] | 340 nM | > 30000 nM | >89 |  | 340 nM |  |  | 
8 | O=C(NCc1ccnc(OC(F)F)c1)NC1CC2(C1)CC2(F)F (stereo not shown) [Example 15, 1-[[2-(difluoromethoxy)pyridin-4-yl]methyl]-3-(2,2-difluorospiro[2.3]hexan-5-yl)urea] | 3100 nM |  |  | 11.3 µL/min/mg |  |  |  | 
9 | O=C(NCc1ccnc(OC(F)F)c1)NC1COC2(CCC2)C1 (stereo not shown) [Example 22, 1-[[2-(difluoromethoxy)pyridin-4-yl]methyl]-3-(5-oxaspiro[3.4]octan-7-yl)urea] | 1440 nM |  |  | 10.6 µL/min/mg |  |  |  | 

Compounds with a lower EC50 (human Kv7.2; [2]), results first:

Row | EC50 (human Kv7.2; [2]) | EC50 (human Kv7.5/7.3) | Kv7.5/7.3/Kv7.2 selectivity ratio (human Kv7.5/7.3) | microsomal CLint at 0.5 μM [1] | EC50 (human Kv7.2; Table A) | EC50 (human Kv7.2; Table C) | EC50 (human Kv7.4) | Kv7.4/Kv7.2 selectivity ratio (human Kv7.4) | SMILES
10 | 60 nM |  |  | 5.2 µL/min/mg |  |  |  |  | O=C(NCc1ccnc(OC(F)F)c1)NC1CC2(CC2)C1 [Example 8, 1-[[2-(difluoromethoxy)pyridin-4-yl]methyl]-3-spiro[2.3]hexan-5-ylurea]
11 | 190 nM |  |  | 17.6 µL/min/mg |  |  |  |  | CC(F)(F)c1cc(CNC(=O)NC2CC3(CCC3)C2)ccn1 [Example 9, 1-[[2-(1,1-difluoroethyl)pyridin-4-yl]methyl]-3-spiro[3.3]heptan-2-ylurea]
12 | 140 nM |  |  | 18.8 µL/min/mg |  |  |  |  | O=C(NCc1ccnc(OC(F)F)c1)NC1CCC2(CC1)CC2(F)F (stereo not shown) [Example 31, 1-[[2-(difluoromethoxy)pyridin-4-yl]methyl]-3-(2,2-difluorospiro[2.5]octan-6-yl)urea]
13 | 170 nM |  |  | 15.2 µL/min/mg |  |  |  |  | O=C(NCc1ccnc(OCC(F)(F)F)c1)NC1CC2(CC2)C1 [Example 12, 1-spiro[2.3]hexan-5-yl-3-[[2-(2,2,2-trifluoroethoxy)pyridin-4-yl]methyl]urea]
14 | 150 nM |  |  | 10.7 µL/min/mg |  |  |  |  | O=C(NCc1ccnc(OC(F)F)c1)NC1CC2(CC(F)C2)C1 (stereo not shown) [Example 16, 1-[[2-(difluoromethoxy)pyridin-4-yl]methyl]-3-(2-fluorospiro[3.3]heptan-6-yl)urea]
